{
  "source": "paper PMC4559766",
  "about": "(Scientific Reports, 2015)",
  "key": {"Du145 transplanted tumor [1]": {"tested_on": "Du145 transplanted tumor", "assay": "TEM of removed tumors, cells with typical apoptosis characteristic", "assay_type": "in vivo, BALB/c-nu/nu nude mice", "conditions": "TEM of tumors removed after 4 weeks of administration", "method": "(§1) Four weeks after administration, the mice were executed, and the tumors of different groups were removed and fixed with 10% neutral formalin or 2.5% glutaraldehyde. The fixed tumor tissue slides were subjected to Hematoxylin-eosin (HE) staining, immunohistochemistry in which anti-CD31 antibody and biotin-labeled IgG were respectively used as the first and second antibody, and TEM analysis. The microvessel densitied (MVD) in different tumor tissues was calculated using the Weidner method."}, "[2]": {"assay": "Pharmacokinetics in BALB/c mice after intravenous injection", "protocol": "Blood samples were collected by eye bleed from three mice at per time point prior to dosing and from 0.5 to 24 hours postdosing, and the plasma portion was analyzed by using an electrospray ionization, LC/MS/MS method described previously[48]. […] Tri (2-carboxyethyl) phosphine hydrochloride (TCEP) was used as a reducing agent to enhance peptide recovery and was added to all samples at a final concentration of 2 mM. After removing the plasma proteins through adding acetonitrile and centrifugation, the supernatant was transferred to another 96-well plate. Samples were analyzed by LC/MS/MS. Pharmacokinetic parameters were fitted to a two-compartment elimination model, and drug exposure (AUC), elimination half-life (t1⁄2), volume of distribution (Vd) and the clearance (CL) were calculated using WinNonlin Ver."}, "[3]": {"tested_on": "chick chorioallantoic membrane", "assay": "Chick chorioallantoic membrane model of angiogenesis", "assay_type": "in vivo", "conditions": "72 hours at 37 °C", "method": "Thirty fertilized chick embryos were randomly divided into five groups and incubated in the thermostatic incubator at 37 °C for six days (blunt end up). Drill a small window about 1 cm × 1 cm on the eggshell on the gas chamber side of chick embryo, meanwhile, also drill a small hole at the gas chamber, so that an artificial gas chamber was formed at the window. After removing the shell and shell membrane, the chicken chorioallantoic membrane (CAM) was exposed. […] The window was sealed with transparent tape, and chick embryos were incubated at 37 °C for 72 hours in thermostatic incubator."}, "Du145 cells [4]": {"tested_on": "Du145 cells", "assay": "Apoptosis of Du145 cells, Annexin V-FITC/PI double staining-flow cytometry", "assay_type": "cell-based, human", "method": "(§2) Du145 cells in logarithmic growth phase were seeded into 6-well plates with number of 3 × 10^5 cells per well."}, "[5]": {"molecular_target": "T1, recombinant human TNFRII (hTNFRII) (Homo sapiens, UniProt P20333)", "T1 construct": "purchased Sino Biological Inc", "T1 sequence (P20333 23-257 limits assumed)": "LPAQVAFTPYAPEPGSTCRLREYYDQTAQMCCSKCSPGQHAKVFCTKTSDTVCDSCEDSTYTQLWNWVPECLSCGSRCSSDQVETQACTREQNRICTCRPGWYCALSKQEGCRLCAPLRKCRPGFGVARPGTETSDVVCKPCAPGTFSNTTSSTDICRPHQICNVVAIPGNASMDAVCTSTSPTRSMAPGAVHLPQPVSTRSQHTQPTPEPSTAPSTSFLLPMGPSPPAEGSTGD", "assay": "SPR binding affinity to hTNFR II (BIAcore 3000)", "conditions": "SPR and ITC", "description": "(§3) BIAcore kinetic evaluation Ver. 4.1 software and Microcal ORIGIN Ver. 5.0 software were respectively used to determine the dissociation constant (KD)."}, "Du145 transplanted tumor [6]": {"tested_on": "Du145 transplanted tumor", "assay": "Microvessel density of removed tumors (anti-CD31 immunohistochemistry, Weidner method)", "assay_type": "in vivo, BALB/c-nu/nu nude mice", "conditions": "tumors removed after 4 weeks of administration, anti-CD31, n = 6", "method": "as §1"}, "HUVEC cells": {"tested_on": "HUVEC cells", "assay": "Proliferation inhibition of HUVEC cells (Cell Counting Kit-8)", "assay_type": "cell-based, human", "conditions": "20 nM, 48 hours", "method": "(§4) Du145, Raji, K562, Eca109, HeLa, MCF-7, MDA-MB-231 cells or non-tumorigenic epithelial cells MCF10A and HUVEC cells in logarithmic growth phase were respectively seeded into 96-well plates with the number of 8000 cells per well and incubated for 24 hours. […] The cells were counted with Cell Counting Kit-8. The IC50 was calculated using SPSS 17.0-Logit."}, "Du145 cells [7]": {"tested_on": "Du145 cells", "assay": "Cell cycle of Du145 cells, PI single staining-flow cytometry", "assay_type": "cell-based, human", "conditions": "20 nM, 48 hours", "method": "as §2"}, "[8]": {"molecular_target": "T2, human TNFRI of ML-la cells (Homo sapiens, UniProt P19438)", "T2 construct": "ML-la cells (a human myelomonoblastic leukemia cell line, 1 × 10^6 cells/well) were preincubated with either anti-p60 antibody or anti-p80 antibody; endogenous in cells; host or cells: ML-la (ML-1a) human myelomonoblastic leukemia cells", "T2 sequence (P19438 30-455)": "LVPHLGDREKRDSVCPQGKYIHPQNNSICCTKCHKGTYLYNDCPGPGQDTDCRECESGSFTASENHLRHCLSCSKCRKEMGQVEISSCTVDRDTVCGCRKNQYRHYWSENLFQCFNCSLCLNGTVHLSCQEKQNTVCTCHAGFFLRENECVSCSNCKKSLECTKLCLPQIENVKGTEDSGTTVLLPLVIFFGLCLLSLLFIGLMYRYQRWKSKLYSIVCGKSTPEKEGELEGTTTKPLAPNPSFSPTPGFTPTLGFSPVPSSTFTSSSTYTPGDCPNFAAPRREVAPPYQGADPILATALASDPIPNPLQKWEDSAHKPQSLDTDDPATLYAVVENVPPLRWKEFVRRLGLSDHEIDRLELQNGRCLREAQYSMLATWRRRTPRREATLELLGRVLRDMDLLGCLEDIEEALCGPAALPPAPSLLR", "assay": "Competition receptor binding assay, [125I]TNF α displacement from TNFRI", "set-up": "unit not given beside the values", "method": "Free iodine was removed by gel filtration on a G-25 column equilibrated with phosphate-buffered saline containing 0.1% gelatin. […] Thereafter cells were washed three times with 150 μl of ice-cold phosphate-buffered saline containing 0.1% bovine serum albumin. Then each well was cut from the plate with a scissors, and cell-bound radioactivity was determined by an Apec-Series […] (ICN Biomedicals, Inc., Costa Mesa, CA)[51]."}, "Factor Xa": {"tested_on": "Factor Xa", "assay": "In vitro factor Xa enzyme digestion half-life", "assay_type": "in vitro ADME", "conditions": "FXa 0.112 unit, 37 °C, 0-48 hours, HPLC-ESI-MS", "method": "FXa (0.112 unit) were added into the mixture. After being thoroughly mixed, the mixture was divided into six aliquots to six PCR tubes and hydrolyzed at 37 °C in dark for 48 hours. Samples were respectively obtained at different time points (0, 12, 24, 36 and 48 hours) and each of samples was boiled for 5 minutes to quench the reaction and centrifuged."}, "[9]": {"tested_on": "human mammary non-tumorigenic epithelial cells MCF10A", "assay": "Proliferation of non-tumorigenic epithelial cells MCF10A (Cell Counting Kit-8)", "assay_type": "cell-based", "conditions": "20–900 nM, 48 hours", "method": "as §4"}, "[10]": {"molecular_target": "T3, recombinant human TNFRI (hTNFRI) (Homo sapiens, UniProt P19438)", "T3 construct": "purchased Sino Biological Inc", "T3 sequence (P19438 30-211 limits assumed)": "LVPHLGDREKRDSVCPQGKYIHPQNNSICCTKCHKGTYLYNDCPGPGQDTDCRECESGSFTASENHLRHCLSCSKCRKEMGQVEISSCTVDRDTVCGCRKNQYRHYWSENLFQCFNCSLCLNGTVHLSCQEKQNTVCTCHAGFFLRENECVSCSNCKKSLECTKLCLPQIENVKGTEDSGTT", "assay": "SPR binding affinity to hTNFR I (BIAcore 3000)", "conditions": "SPR and ITC", "description": "as §3"}, "Du145 transplanted tumor [11]": {"tested_on": "Du145 transplanted tumor", "assay": "Subcutaneous Du145 transplanted tumor in nude mice", "assay_type": "in vivo, BALB/c-nu/nu nude mice", "conditions": "tail vein once a day for 4 weeks; 0.1 ml of 40 nM RMP16 or P16, estramustine 60 mg/kg; by average tumor weight versus NaCl group; n = 6", "method": "Thirty male 4-week-old BALB/c-nu/nu nude mice (17–19 g), were divided into five groups. CK group (blank control) was the mice which were not inoculated Du145 cells, and the remaining four groups received inoculation of Du145 cells. 0.2 ml of Du145 cells suspension with the concentration of 1.5 × 10^7 cells/ml was injected subcutaneously into the right side of back of nude mice. […] The weights and volumes of tumors in different groups were measured once every four days, and tumor growth curves for each group were plotted."}, "[12]": {"assay": "Blood biochemical indexes of liver and kidney function in tumor-bearing nude mice", "conditions": "serum at end of 4 weeks of administration, n = 6", "protocol": "The blood was collected and centrifuged at the end of administration for 4 weeks. The serum was placed into eppendorf (EP) tube and immediately sent to the First Affiliated Hospital of Jinan University where several tests closely related to liver/kidney function were performed, and the blood biochemical indexes AST, ALT, AST/ALT, ALB, GLB, ALB/GLB, DBILI, IBILI, TBILI, BUN and CREA were obtained."}, "[13]": {"conditions": "BALB/c, mouse, plasma, iv, 5 mg/kg"}},
  "note": "“And” between values parts separate entries of the source, which are not always exact repeats. Equal entries are not always repeated.",
  "data": [
    {"smiles": "CC[C@H](C)[C@H](NC(=O)[C@H](CCCNC(=N)N)NC(=O)[C@H](CO)NC(=O)[C@@H](NC(=O)[C@@H](NC(=O)[C@H](Cc1c[nH]cn1)NC(=O)[C@@H](NC(=O)[C@H](CC(C)C)NC(=O)[C@H](CC(C)C)NC(=O)[C@H](CCCNC(=N)N)NC(=O)CNC(=O)[C@H](CCC(=O)O)NC(=O)[C@@H](NC(=O)[C@H](Cc1c[nH]c2ccccc12)NC(=O)[C@H](CO)NC(=O)[C@H](CO)NC(=O)[C@@H]1CCCN1C(=O)[C@H](CCCNC(=N)N)NC(=O)[C@H](CCC(N)=O)NC(=O)[C@H](Cc1c[nH]c2ccccc12)NC(=O)[C@@H](N)CCSC)[C@@H](C)CC)[C@@H](C)O)[C@@H](C)O)[C@@H](C)CC)C(=O)N[C@@H](C)C(=O)N[C@H](C(=O)N[C@@H](CO)C(=O)N[C@@H](Cc1ccc(O)cc1)C(=O)N[C@@H](CCC(N)=O)C(=O)N[C@H](C(=O)N[C@@H](CCCCN)C(=O)N[C@H](C(=O)N[C@@H](CC(N)=O)C(=O)N[C@@H](CC(C)C)C(=O)N[C@@H](CC(C)C)C(=O)O)C(C)C)[C@@H](C)O)C(C)C", "note": "[RMP16]", "values": [
      {"measurement": "percent of the tumor cells with typical apoptosis characteristic", "setting": "Du145 transplanted tumor [1]", "result": "about 79.6%"},
      {"measurement": "AUC", "setting": "[2]; [13]", "result": 1360, "unit": "µg·h/mL"},
      {"measurement": "Vd", "setting": "[2]; [13]", "result": 0.0695, "unit": "L/kg"},
      {"measurement": "clearance", "setting": "[2]; [13]", "result": 3.68, "unit": "mL/h/kg"},
      {"measurement": "half-life", "setting": "[2]; [13]", "result": 13.1, "unit": "h"},
      {"measurement": "half-life in mice", "setting": "[2]; in mice, as stated in abstract", "result": 13.11, "unit": "h"},
      {"measurement": "vessel branch points, dose of 2 μg", "setting": "[3]; 2 μg on filter membrane, n = 6", "result": "28.02 ± 1.37"},
      {"measurement": "inhibition rate of angiogenesis, 2 μg", "setting": "[3]; 2 μg on filter membrane, versus NaCl group", "result": "54.13 ± 5.13", "unit": "%"},
      {"measurement": "vessel branch points, dose of 4 μg", "setting": "[3]; 4 μg on filter membrane, n = 6", "result": "12.31 ± 2.95"},
      {"measurement": "inhibition rate of angiogenesis, 4 μg", "setting": "[3]; 4 μg on filter membrane, versus NaCl group", "result": "79.94 ± 4.64", "unit": "%"},
      {"measurement": "increase of apoptosis rate for Du145 cells", "setting": "Du145 cells [4]; 20 nM, 48 h, Annexin V-FITC/PI flow cytometry, versus PBS", "result": 14.21, "unit": "%"},
      {"measurement": "cell pro-apoptotic effect after TNFRI blocking", "setting": "Du145 cells [4]; Du145 cells pre-incubated with 100 nM H398 (TNFRI-selective inhibitor) for 30 minutes at 37 °C before 20 nM RMP16", "result": "disappeared"},
      {"measurement": "bound less strongly to hTNFRII than did TNF α", "setting": "[5]", "result": "~6600", "unit": "times"},
      {"measurement": "microvessel density (MVD)", "setting": "Du145 transplanted tumor [6]", "result": "6.4 ± 0.62"},
      {"measurement": "effect on proliferation of HUVEC", "setting": "HUVEC cells", "result": "significantly inhibited the proliferation"},
      {"measurement": "increase of Du145 cells remaining in G0/G1 phase", "setting": "Du145 cells [7]", "result": 13.1, "unit": "%"},
      {"measurement": "reduction of Du145 cells remaining in S phase and G2/M phase", "setting": "Du145 cells [7]", "result": 12.9, "unit": "%"},
      {"measurement": "IC50 of displacing [125I]TNF α from TNFRI as multiple of that from TNFRII", "setting": "[8]", "result": "1/400"},
      {"measurement": "factor Xa enzyme digestion half-life in the presence of HSA", "setting": "Factor Xa; 10 μM peptide in PBS with 2 μM HSA", "result": 15.83, "unit": "h"},
      {"measurement": "half-life at 10 μM", "setting": "Factor Xa; factor Xa (FXa) enzyme digestion in PBS without HSA, 10 μM peptide in PBS without HSA, read-out: factor Xa enzyme digestion half-life in the absence of HSA (converted)", "result": 9.72, "unit": "h"},
      {"measurement": "effect on proliferation of MCF10A cells", "setting": "[9]", "result": "not significant effect"},
      {"measurement": "binding affinity for hTNFRI higher than that for hTNFRII", "setting": "[10]", "result": "~410", "unit": "times"},
      {"measurement": "bound less strongly to hTNFRI than did TNF α", "setting": "[10]", "result": "~4.5", "unit": "times"},
      {"measurement": "tumor inhibition rate", "setting": "Du145 transplanted tumor [11]", "result": "~80% and 78.11%"},
      {"measurement": "ALB", "setting": "[12]", "result": "17.2 ± 0.2", "unit": "g/L"},
      {"measurement": "ALT", "setting": "[12]", "result": "100.5 ± 20.5", "unit": "U/L"},
      {"measurement": "AST", "setting": "[12]", "result": "154 ± 28", "unit": "U/L"},
      {"measurement": "CREA", "setting": "[12]", "result": "10.5 ± 0.5", "unit": "µM"},
      {"measurement": "DBILI", "setting": "[12]", "result": "3 ± 0.7", "unit": "µM"},
      {"measurement": "GLB", "setting": "[12]", "result": "41.7 ± 1", "unit": "g/L"},
      {"measurement": "IBILI", "setting": "[12]", "result": "9.25 ± 0.55", "unit": "µM"},
      {"measurement": "TBILI", "setting": "[12]", "result": "12.25 ± 0.15", "unit": "µM"}
    ]}
  ]
}
